Reference: EP4685128A1, “NOVEL 2-(1-HYDROXYPENTYL) BENZOIC ACID CYCLOALKYL AMINE SALT” (priority 2023, dated 2024)

Experiments:
[1] = system: platelet aggregation in rats; experiment: ADP-induced platelet aggregation in platelet-rich plasma of rats after oral gavage; assay type: in vivo; conditions: for Maximum platelet aggregation rate (%): blood taken 3 hours after gavage, 20µM ADP, platelet-rich plasma, n=10; for platelet aggregation rate compared with the solvent control group: significance versus solvent control group, doses as in Table 3
Method: After oral gavage administration for 3 hours on the same day, blood was collected from the abdominal aorta to obtain platelet-rich plasma from each group. Platelet aggregation was induced by 20µM ADP, and the maximum platelet aggregation rate in platelet-rich plasma was determined by platelet aggregometer, to evaluate and compare the effects of platelet aggregation in rats.

MCAO rats [2] = experiment: Cerebral infarct volume (TTC staining) in rat MCAO ischemia-reperfusion model; assay type: in vivo; conditions: for extent of cerebral infarction compared with the model group: 24 h, t-test versus model group, doses as in Table 2; for Percentage of cerebral infarction volume (%): 24 hours after MCAO ischemia, tail vein, single dose, n=10
MCAO rats [3] = experiment: Neurological deficit scoring (Longa method) in rat MCAO ischemia-reperfusion stroke model; conditions: for neurological symptoms of rats compared with the model group: 24 h postoperatively, t-test versus model group, doses as in Table 1; for Score 2h: neurological deficit score 2 h after ischemia (administration started at reperfusion after 2 h); for Score 2h / Score 24h: tail vein, single dose, n=10; for Score 24h: neurological deficit score 24 h post-surgery
Method: Administration was initiated upon reperfusion after 2 hours of ischemia. The model and the sham operation group were given an equal volume 5% glucose injection solution via tail vein injection, while the other groups were injected with the corresponding drugs via tail vein, each with a single dose. […] Performing modeling surgery: The rat MCAO model was established with reference to the Longa intraluminal filament occlusion method. Nylon monofilament was cut into 2 cm lengths, the tip was dipped into a tiny amount of molten paraffin, after cooling, the ends of the nylon threads were completely wrapped for later use. The rats were completely anesthetized with 3% sodium pentobarbital (30 mg/kg), and placed supine, and secured on a surgical board. The cervical skin was prepared and disinfected, a 2-cm mid line incision was made. The left common carotid artery was bluntly isolated, and the external and internal carotid arteries were dissected free along the common carotid artery. The distal ends of the common carotid artery and the external carotid artery were ligated, and the internal carotid artery was occluded using hemostatic forceps. A small arteriotomy was made in the common carotid artery and the prepared nylon monofilament was inserted through the opening. The wax-coated tip was inserted into the common carotid artery and advanced into the internal carotid artery, the hemostat was released, and the advancement of the wax tip was stopped when it was 13-16 mm from the opening. The filament was secured, and the cervical incision was closed. After 2 h of occlusion, rats were anesthetized and the filament was withdrawn. In the sham operation group, rats were completely anesthetized with only 3% sodium pentobarbital. After cervical skin preparation and incision, the common carotid artery was bluntly isolated, and the wound immediately closed, without filament insertion. […] Neurological deficit scoring: scoring time: before modeling, 2 h after ischemia, and 24 h post-surgery, all surviving animals were scored in a blinded manner using a modified neurological deficit score. The scoring criteria of Longa's method were as follows: 0: normal neurological function; 1: mild neurological deficit: when suspended by the tail, the animal's left forelimb was flexed; 2: moderate neurological deficit: when placed on a smooth surface, the animal circles to the left side while walking; 3: moderate neurological deficit: at rest, the animal leans to the left side; 4: depressed consciousness with no spontaneous limb movements; 5: unresponsive to stimuli or death. […] Result analysis: The t-test was used to compare the behavioral test scores between groups.

[4] = Stability test (influence factor test, Chinese Pharmacopoeia 2020 General Chapter 9001); conditions: for Decomposition product butylphthalide %: HPLC; for appearance / main peak and butylphthalide content: 30 days under open high-temperature and light exposure
Method: An appropriate amount of each compound to be tested was taken, and the influence factor test was conducted according to the General Chapter 9001 of Part 4 of the 2020 Edition of the Chinese Pharmacopoeia. The appearance of the compounds and the content of the main degradation product, butylphthalide, were detected respectively on day 0 and day 30 for each compound. The detection of butylphthalide was performed using high performance liquid chromatography, with a column packed with octadecylsilane-bonded silica gel, and a mobile phase of methanol-water (65:35).

SD rats = experiment: Repeated administration toxicity test in rats (14 days, tail vein); conditions: once daily for 14 consecutive days, n=10
[5] = as stated for CN1523003A, background art; cited from earlier work
[6] = as stated for CN1523003A, background art; cited from earlier work; remark: listed apart in the source
[7] = Solubility test (Chinese Pharmacopoeia 2020 method); assay type: physicochemical

Compound: CC1CC1N.CCCCC(O)c1ccccc1C(=O)O (stereo not shown) [Compound 15, 2-methylcyclopropane-1-amine 2-(1-hydroxypentyl)benzoate salt]
- Maximum platelet aggregation rate (%) ([1]; ig 200 mg/kg): 41.10±6.45 %

Compound: CCCCC(O)c1ccccc1C(=O)O.N[C@@H]1[C@@H]2C[C@@H]3C[C@H]1C[C@@](O)(C3)C2 (stereo not drawn) [Compound 10, trans-1-hydroxyadamantan-4-amine 2-(1-hydroxypentyl)benzoate salt]
- extent of cerebral infarction compared with the model group (MCAO rats [2]): significantly reduced
- Percentage of cerebral infarction volume (%) (MCAO rats [2]; 0.016 mmol/kg): 25.8±4.52 %
- neurological symptoms of rats compared with the model group (MCAO rats [3]): highly significant
- Score 2h (MCAO rats [3]; group dose 0.016 mmol/kg): 2.9±1.52
- Score 24h (MCAO rats [3]; 0.016 mmol/kg): 1.61±1.07
- Maximum platelet aggregation rate (%) ([1]; ig 200 mg/kg): 38.20±12.25 %

Compound: CC(=O)Oc1ccccc1C(=O)O [Aspirin, reference compound]
- Maximum platelet aggregation rate (%) ([1]; ig 100 mg/kg): 27.00±6.48 %
- platelet aggregation rate compared with the solvent control group [1]: highly significantly different

Compound: CCCCC(O)c1ccccc1C(=O)O.NC12CC3CC(C1)C(F)C(C3)C2 (stereo not shown) [Compound 7, 4-fluoroadamantane-1-amine 2-(1-hydroxypentyl)benzoate salt]
- Maximum platelet aggregation rate (%) ([1]; ig 200 mg/kg): 37.90±12.60 %

Compound: CCCC12CC3CC(CC(N)(C3)C1)C2.CCCCC(O)c1ccccc1C(=O)O (stereo not shown) [Compound 6, 3-n-propyladamantane-1-amine 2-(1-hydroxypentyl)benzoate salt]
- Maximum platelet aggregation rate (%) ([1]; ig 200 mg/kg): 40.30±12.26 %

Compound: CCCCC(O)c1ccccc1C(=O)O.NC12CC3CC(CC(C3)C1)C2 (stereo not shown) [Compound 1, amantadine 2-(1-hydroxypentyl)benzoate salt]
- extent of cerebral infarction compared with the model group (MCAO rats [2]): significantly reduced
- Percentage of cerebral infarction volume (%) (MCAO rats [2]; 0.016 mmol/kg): 25.7±5.29 %
- neurological symptoms of rats compared with the model group (MCAO rats [3]): highly significant
- Score 2h (MCAO rats [3]; group dose 0.016 mmol/kg): 2.8±1.14
- Score 24h (MCAO rats [3]; 0.016 mmol/kg): 1.60±0.84
- Property ([4]; 0 day): White powder
- Decomposition product butylphthalide % ([4]; 0 day): 0.114%
- appearance [4]: remains unchanged
- main peak and butylphthalide content [4]: minimal variation
- Property ([4]; high humidity RH92.5%, 30 days): White powder
- Decomposition product butylphthalide % ([4]; high humidity RH92.5%, 30 days): 0.298%
- Maximum platelet aggregation rate (%) ([1]; ig 200 mg/kg): 34.60±9.57 %
- Mortality rate (%) (SD rats; high dose 105 mg/kg): 0%
- Mortality rate (%) (SD rats; low dose 15 mg/kg): 0%
- Mortality rate (%) (SD rats; medium dose 45 mg/kg): 0%

Compound: CCCCC(O)c1ccccc1C(=O)O.NCc1ccccc1 (stereo not shown) [benzylamine salt]
- toxicity [5]: highly toxic

Compound: NC12CC3CC(CC(C3)C1)C2 [Amantadine, amantadine, reference compound]
- extent of cerebral infarction compared with the model group (MCAO rats [2]): no significant inhibitory effect
- Percentage of cerebral infarction volume (%) (MCAO rats [2]; 0.016 mmol/kg): 35.1±4.56%
- neurological symptoms of rats compared with the model group (MCAO rats [3]): no significant improvement
- Score 2h (MCAO rats [3]; group dose 0.016 mmol/kg): 2.5±1.08
- Score 24h (MCAO rats [3]; 0.016 mmol/kg): 3.00±0.82

Compound: CCCCC(O)c1ccccc1C(=O)[O-].[K+] (stereo not shown) [Potassium salt, 2-(1-hydroxypentyl)benzoic acid potassium salt, reference compound]
- hygroscopicity [6]: highly hygroscopic
- extent of cerebral infarction compared with the model group (MCAO rats [2]): significantly reduced
- Percentage of cerebral infarction volume (%) (MCAO rats [2]; 0.016 mmol/kg): 29.7±5.72 %
- toxicity [5]: greater toxicity
- neurological symptoms of rats compared with the model group (MCAO rats [3]): significantly improved
- Score 2h (MCAO rats [3]; group dose 0.016 mmol/kg): 2.9±0.99
- Score 24h (MCAO rats [3]; 0.016 mmol/kg): 1.90±0.74
- Property ([4]; 0 day): White powder
- Decomposition product butylphthalide % ([4]; 0 day): 0.090%
- Property ([4]; high humidity RH92.5%, 30 days): Partially deliquescent and liquefied
- Decomposition product butylphthalide % ([4]; high humidity RH92.5%, 30 days): 25.687%
- Maximum platelet aggregation rate (%) ([1]; ig 200 mg/kg): 48.50±8.29 %
- platelet aggregation rate compared with the solvent control group [1]: highly significantly different

Compound: CC(C)(C)N.CCCCC(O)c1ccccc1C(=O)O (stereo not shown) [Tert-butylamine salt, 2-(1-hydroxypentyl)benzoic acid tert-butylamine salt, reference compound]
- toxicity [5]: highly toxic
- Property ([4]; 0 day): White powder
- Decomposition product butylphthalide % ([4]; 0 day): 0.041%
- Property ([4]; high humidity RH92.5%, 30 days): White powder
- Decomposition product butylphthalide % ([4]; high humidity RH92.5%, 30 days): 10.214%

Compound: CCCCC(O)c1ccccc1C(=O)O.NC1CCC(O)CC1 (stereo not shown) [Compound 13, 4-hydroxycyclohexan-1-amine 2-(1-hydroxypentyl)benzoate salt]
- Maximum platelet aggregation rate (%) ([1]; ig 200 mg/kg): 42.10±5.99 %

Compound: CC1C2CC3CC(C2)CC1(N)C3.CCCCC(O)c1ccccc1C(=O)O (stereo not shown) [Compound 3, 2-methyladamantan-1-amine 2-(1-hydroxypentyl)benzoate salt]
- Maximum platelet aggregation rate (%) ([1]; ig 200 mg/kg): 37.50±9.42 %

Compound: Bicyclo[2,2,1]heptane-2-amine 2-(1-hydroxypentyl)benzoate salt [Compound 16]
- Maximum platelet aggregation rate (%) ([1]; ig 200 mg/kg): 44.10±5.15 %

Compound: CCCCC1OC(=O)c2ccccc21 (stereo not shown) [Butylphthalide, reference compound]
- extent of cerebral infarction compared with the model group (MCAO rats [2]): significantly reduced
- Percentage of cerebral infarction volume (%) (MCAO rats [2]; 0.053 mmol/kg): 31.0±7.50 %
- neurological symptoms of rats compared with the model group (MCAO rats [3]): significantly improved
- Score 2h (MCAO rats [3]; group dose 0.053 mmol/kg): 2.8±1.03
- Score 24h (MCAO rats [3]; 0.053 mmol/kg): 2.10±0.99
- Maximum platelet aggregation rate (%) ([1]; ig 200 mg/kg): 57.50±9.05 %
- platelet aggregation rate compared with the solvent control group [1]: significantly different

Compound: CC12CC3CC(C)(C1)CC(N)(C3)C2.CCCCC(O)c1ccccc1C(=O)O (stereo not shown) [Compound 4, 3,5-dimethyladamantane-1-amine 2-(1-hydroxypentyl)benzoate salt]
- extent of cerebral infarction compared with the model group (MCAO rats [2]): significantly reduced
- Percentage of cerebral infarction volume (%) (MCAO rats [2]; 0.016 mmol/kg): 25.1±4.41 %
- neurological symptoms of rats compared with the model group (MCAO rats [3]): highly significant
- Score 2h (MCAO rats [3]; group dose 0.016 mmol/kg): 2.7±1.16
- Score 24h (MCAO rats [3]; 0.016 mmol/kg): 1.50±0.53
- Property ([4]; 0 day): White powder
- Decomposition product butylphthalide % ([4]; 0 day): 0.107%
- appearance [4]: remains unchanged
- main peak and butylphthalide content [4]: minimal variation
- Property ([4]; high humidity RH92.5%, 30 days): White powder
- Decomposition product butylphthalide % ([4]; high humidity RH92.5%, 30 days): 0.258%
- Maximum platelet aggregation rate (%) ([1]; ig 200 mg/kg): 38.10±6.24 %
- Mortality rate (%) (SD rats; high dose 105 mg/kg): 0%
- Mortality rate (%) (SD rats; low dose 15 mg/kg): 0%
- Mortality rate (%) (SD rats; medium dose 45 mg/kg): 0%
- Solubility ([7]; medium Water, about 0.01 g sample in 9.0 ml): Completely soluble
- Solubility ([7]; medium pH4.5, about 0.01 g sample in 9.0 ml): Completely soluble
- Solubility ([7]; medium pH6.8, about 0.01 g sample in 9.0 ml): Completely soluble

Compound: CCCCC(O)c1ccccc1C(=O)O.c1ccc(CNCCNCc2ccccc2)cc1 [N'N-dibenzylethylenediamine salt, reference compound]
- toxicity [5]: lower toxicity
- Maximum platelet aggregation rate (%) ([1]; ig 200 mg/kg): 46.6±10.78 %
- platelet aggregation rate compared with the solvent control group [1]: highly significantly different

Compound: CC(C)NC(C)C.CCCCC(O)c1ccccc1C(=O)O (stereo not shown) [Diisopropylamine salt, 2-(1-hydroxypentyl)benzoic acid diisopropylamine salt, reference compound]
- Property ([4]; 0 day): White powder
- Decomposition product butylphthalide % ([4]; 0 day): 0.087%
- Property ([4]; high humidity RH92.5%, 30 days): White powder
- Decomposition product butylphthalide % ([4]; high humidity RH92.5%, 30 days): 8.025%
